Results on two compounds are retold here after patent publication US20260139222A1, “SYSTEMS WITH BIO-ENGINEERED ADHESIVE SILOXANE SUBSTRATE OF TUNABLE STIFFNESS AND METHODS OF USE THEREOF” (NUTECH VENTURES, priority 2022, published 2026).

Assay [1] deals with HMC3 microglia. In words: Microglial proliferation and growth on stiffness after NAC pretreatment. The class given is cell-based, human. As for the experimental part:
Cell Count and Growth Analysis: Microglia were seeded in triplicate (7.5×10^5 cells/well) in a 12-well plate and the growth of cells was counted every other day, after which the stiffer matrices reached 100% confluency. At 48 h intervals, cells were trypsinized and counted using trypan blue exclusion tests. The doubling time of each stiffness was calculated with the following formula: […], where C_start is the number of cells at the beginning (day 0), C_end is the number of cells after a period of time t and T is the doubling time. NAC administration in microglial cells: NAC was purchased (Sigma-Aldrich, St. Louis, MO, USA) and was used in treatment after seeding microglial cells for 3 hours with a 2×PBS wash, then replaced with microglia media every 72 hours. Concentrations of 0.25 and 2.5 mM were used 36. Microglia were grown for 11 days and then assessed using qRT-PCR, counting, and luminescent assays.

Assay [2] relates to HMC3 microglia. In words: qRT-PCR gene expression in microglia with and without NAC pretreatment. The format is cell-based, human. The protocol: NAC administration in microglial cells: NAC was purchased (Sigma-Aldrich, St. Louis, MO, USA) and was used in treatment after seeding microglial cells for 3 hours with a 2×PBS wash, then replaced with microglia media every 72 hours. Concentrations of 0.25 and 2.5 mM were used 36. Microglia were grown for 11 days and then assessed using qRT-PCR, counting, and luminescent assays. Gene Expression by Quantitative RT-PCR (qRT-PCR): Total RNA expression was extracted from microglial cells using TRIzol reagent (Invitrogen, CA, USA) and RNA samples were quantified by Take3 Micro-Volume Plate reader (BioTek, VT, USA) by spectrophotometry at 260/280 nm. Purity was assessed by an absence of 320 nm. RNA samples were reverse transcribed using the M-MuLV RT reagent Kit (New England BioLabs, MA, USA). Relative mRNA levels were determined by real-time PCR using a SYBR® PowerUp master mix and a real-time PCR detection system (Mastercycler Realplex ep gradient, Eppendorf, Hamburg, Germany). Data were expressed in Ct values normalized to 18S and […] between control (2 kPa) and treated groups (8, 15, 25 kPa) was determined using the 2-ΔΔCt method. The telomerase-associated genes were probed using the TaqManTM Array Human Telomere Extension by Telomerase (Applied Biosystems #4414187) with multiple plates. Briefly, samples were loaded with SYBR® PowerUp master mix and a real-time PCR detection system (Mastercycler Realplex ep gradient, Eppendorf, Hamburg, Germany). Data were expressed in Ct values normalized to endogenous controls provided with the array and […] and older change between groups was determined using the 2-ΔΔCt method.

Another assay relates to caspases 3, 5, and 6. Put plainly: Non-canonical caspase activity (with Ac-YVAD-CHO) in microglia. Particulars: NAC pre-treatment. The class given is cell-based, human. As for the experimental part:
(§1) Caspase-1 and Non-canonical Inflammasome Activity Assays: Detection of caspase-1 and non-canonical caspases using a luciferase assay was performed using Caspase-Glo™ Inflammasome Assay (Cat #G9951; Promega, Madison WI, USA) according to the manufacturer's instructions. Briefly, microglial cells were grown in 12-well plates on differing stiffness for 11 days and then plated with a selective caspase-1 substate, Z-WEHD, for catalytically active caspase-1 with or without a caspase-1 specific inhibitor, Ac-YVAD-CHO, to confirm specific activity in parallel samples. The Ac-YVAD-CHO has minimal effect on other cross-reacting caspases 3, 5, and 6, thereby, representing non-canonical inflammatory caspase activity. Total luminescence was measured using a Synergy™ 2 multi-mode microplate reader (BioTek, VT, USA). NAC administration in microglial cells: NAC was purchased (Sigma-Aldrich, St. Louis, MO, USA) and was used in treatment after seeding microglial cells for 3 hours with a 2×PBS wash, then replaced with microglia media every 72 hours. Concentrations of 0.25 and 2.5 mM were used 36. Microglia were grown for 11 days and then assessed using qRT-PCR, counting, and luminescent assays.

The test system of assay [3] is HMC3 microglia. Put plainly: Total intracellular ROS (H2DCFDA dye) in microglia on stiffness after NAC pretreatment. The format is cell-based, human. The conditions noted are these: NAC-pre-treated microglia; 11 days on stiffness (2, 8, 25 kPa). The protocol: ROS Quantification and Imaging: 5-(and6)-Chloromethyl-2′,7′-dichlorodihydro-fluorescein diacetate (CM-H2DCFDA) is a fluorescent indicator activated by the presence of ROS. The intensity of CM-H2DCFDA was measured by calculating the corrected total cell fluorescence (CTCF) from The Open Lab Book Imaging protocols. Microglial cells were plated onto 12-well plates at a density of 75,000 cells/mL. Microglial cells were grown to confluency and then 10 μM DCF-DA (Invitrogen) was added to all wells, and cells were incubated for a further 30 minutes before analysis of ROS-activated DCF-DA fluorescence (FL-1/525 nm).
(§2) NAC administration in microglial cells: NAC was purchased (Sigma-Aldrich, St. Louis, MO, USA) and was used in treatment after seeding microglial cells for 3 hours with a 2×PBS wash, then replaced with microglia media every 72 hours. Concentrations of 0.25 and 2.5 mM were used 36. Microglia were grown for 11 days and then assessed using qRT-PCR, counting, and luminescent assays.

In assay [4] the test system is HMC3 microglia. In words: Morphology of HMC3 microglia on BEASTS surfaces after NAC pretreatment. The format is cell-based, human. Particulars: 0.25 mM NAC pretreatment; after 11 days; all stiffnesses. As for the experimental part: To investigate the protective effect of NAC on stiffness-activated microglia, microglial cells were pretreated with 0.25 and 2.5 mM NAC prior to seeding. After 11 days, the morphology was ramified across all treatments with 0.25 mM NAC (FIG. 17A). ROS production was then measured. […] Next, the genotypes of untreated microglia were compared with NAC-treated microglia and an attenuation was found in each transcript. […] Additionally the MI profile correspondingly attenuated and mechanosensors; however, the M2 marker PPARG increased. To investigate the influence of NAC on caspase-1 stiffness-driven inflammation, the activity of caspase-1 was measured. The activity was reduced in 2 and 8 kPa; however, 25 kPa had increased caspase-1 activity, corroborating the findings with the loss of the CX3CR1 transcript (FIGS. 17E and 17F). […] Together, these findings indicate that pre-treatment of NAC attenuates ROS-driven dysfunction in stiffness-activated microglia. […] BV2 mouse microglia and HMC3 human cells: All cells were grown in aseptic conditions following standard cell culture protocol and stored in an incubator set at 37° C. with 5% CO2. […] Microglia were grown for 11 days and then assessed using qRT-PCR, counting, and luminescent assays.

The next assay addresses T1, caspase-1 (Homo sapiens, UniProt P29466).
T1 construct: endogenous in cells; host or cells: microglial cells (HMC3 inferred)
T1 sequence (P29466 120-297 limits assumed): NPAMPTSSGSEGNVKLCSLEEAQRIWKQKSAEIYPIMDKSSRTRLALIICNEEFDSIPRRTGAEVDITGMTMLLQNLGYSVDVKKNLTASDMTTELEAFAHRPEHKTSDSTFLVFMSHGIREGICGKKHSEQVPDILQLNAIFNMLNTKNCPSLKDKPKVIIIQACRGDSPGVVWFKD
T1 sequence (P29466 317-404 limits assumed): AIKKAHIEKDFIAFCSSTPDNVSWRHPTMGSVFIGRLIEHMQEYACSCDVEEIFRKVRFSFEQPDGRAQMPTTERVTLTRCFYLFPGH
In words: Intracellular caspase-1 activity, bioluminescent assay of microglia. The format is cell-based. The conditions noted are these: NAC pretreatment. The protocol: as §1, with “USA).” for “USA). NAC administration in microglial cells: NAC was purchased (Sigma-Aldrich, St. Louis, MO, USA) and was used in treatment after seeding microglial cells for 3 hours with a 2×PBS wash, then replaced with microglia media every 72 hours. Concentrations of 0.25 and 2.5 mM were used 36. Microglia were grown for 11 days and then assessed using qRT-PCR, counting, and luminescent assays.”
as §2

The test system of assay [5] is Nrf2-related genes in HTR8 cells. The conditions noted are these: sulforaphane treatment. The protocol: Sulforaphane (SFN) is a naturally occurring compound present in cruciferous vegetables like broccoli, watercress, Brussels sprouts, cabbage, and cauliflower. […] As a potent Nrf2 activator, SFN affects the expression of approximately 200 genes, including those involved in antioxidant and anti-inflammatory processes. To explore the impact of sulforaphane treatment on the expression levels of Nrf2-related genes, HTR8 cells were cultured on 8 kPa, 25 kPa, and 55 kPa BEASTS surfaces and the gene expression was analyzed by RT-PCR.
Gene Expression analysis of the HTR8 cells: Cells were cultured on BEASTS substrates of different stiffness levels (8 kPa, 25 kPa, and 55 kPa) for four days. After the culture, the total RNA was isolated from the HTR8 cells using Trizol following the manufacturer's instructions. RNA was extracted from the aqueous phase of the cell lysates by adding chloroform, followed by
RNA precipitation using isopropyl alcohol and rinsed with 75% ethanol. The RNA pellet was quantified and quality-checked using a spectrophotometer and then reverse-transcribed using the iScript™ cDNA synthesis kit. Subsequently, the relative expression levels of the target genes were analyzed using quantitative real-time PCR with SYBR Green Master Mix, and GAPDH was used as the housekeeping gene. The […] was employed for data analysis.

Setting [6] is: HTR8 cells, all three stiffness levels (8, 25, 55 kPa).

Entries after “also recorded” stand apart in the source; their conditions may differ.

As to `CC(=O)N[C@@H](CS)C(=O)O` [NAC, N-Acetyl-l-Cysteine], the “stiffness-induced microglial proliferation / growth” value with HMC3 microglia [1] is “mitigates; also recorded: slows”. The “transcripts of NAC-treated versus untreated microglia” value in the assay on HMC3 microglia [2] (0.25 mM NAC pretreatment, RT-qPCR, 2, 8, 25 kPa) was “attenuation”. The “inflammatory phenotype of microglia” value in the assay on HMC3 microglia [2] (NAC pretreatment, HMC3 cell line on stiffness) was “ameliorates”. Also, in the assay on HMC3 microglia [2] (NAC pretreatment, qRT-PCR), the PTGS2 expression result is “decrease” and the YAP1 expression result is reported as “decrease”. Moreover, in the assay on HMC3 microglia [2] (NAC-treated microglia), the “M1 inflammatory profile (printed MI profile)” value is “attenuated” and the “PPARG (M2 marker) expression” value is “increased”. Further, the “CX3CR1 (steady-state marker) expression” value in the assay with HMC3 microglia [2] (NAC-treated microglia, 25 kPa) was “decreased substantially”. For the same compound, the “activity of non-canonical caspases” value with caspases 3, 5, and 6 (2 and 8 kPa) was “reduced”. In addition, in the assay on caspases 3, 5, and 6 (elevated activity at 25 kPa), the “activity of non-canonical caspases” value was “attenuated”. Moreover, in the assay with HMC3 microglia [3], the ROS production result is “mitigates; also recorded: significantly reduced; also recorded: ameliorates”. Moreover, in the assay on HMC3 microglia [4], the microglial morphology entry is on record as “ramified”. Moreover, the caspase-1 activity entry at caspase-1 (2 and 8 kPa) is “reduced”. In addition, the caspase-1 activity entry on caspase-1 (25 kPa) was “increased”.

For the compound `C[S+]([O-])CCCCN=C=S` (stereo not shown) [sulforaphane, Sulforaphane], the “expression levels of Nrf2-related genes” value in assay [5] (HTR8 cells on 8 kPa, 25 kPa, and 55 kPa BEASTS surfaces, RT-PCR) is recorded as “increase”. Further, the GCLM gene expression result in assay [5] (HTR8 cells, 8 kPa and 55 kPa) is “markedly upregulated”. For the same compound, in assay [5] (HTR8 cells, 55 kPa), the HMOX1 gene expression entry is “markedly upregulated”. In assay [5] (setting [6]), the GSR gene expression entry is recorded as “significantly upregulated” and the NQO1 gene expression entry is “significantly upregulated”.
